Counter-ions that a name gives are not always drawn.
Experiments:
[1] = powder; cited from earlier work
[2] = system: patients with agitation associated with Alzheimer's disease; assay: Phase 2/3 randomized, double-blind, controlled clinical trial in agitation associated with Alzheimer's disease; format: in vivo, human
Method: A Phase 2/3 randomized, double-blind, controlled, multicenter, U.S. clinical trial was conducted to evaluate the efficacy and safety of DM/BU in patients with agitation associated with Alzheimer's disease. A total of 366 patients with a diagnosis of probable Alzheimer's disease and clinically meaningful agitation associated with their disease were randomized, initially in a 1:1:1 ratio, to receive DM/BU (dextromethorphan/bupropion, dose escalated from 30 mg/105 mg once daily in the first week, to 30 mg/105 mg twice daily in the second week, to 45 mg/105 mg twice daily thereafter), bupropion (dose escalated from 105 mg once daily in the first week to 105 mg twice daily thereafter), or matching placebo, for 5 weeks. An independent data monitoring committee performed an interim futility analysis and recommended no further randomization to the bupropion arm. Subsequently, patients were randomized in a 1:1 ratio to receive DM/BU or placebo. Total patients randomized were 159, 49, and 158 to the DM/BU, bupropion, and placebo arms, respectively. The mean Cohen-Mansfield Agitation Inventory (CMAI) total scores at baseline were 60.8, 66.1, and 59.3, respectively for the DM/BU, bupropion, and placebo groups. The minimum score on the CMAI is 29, corresponding to the total absence of symptoms, with higher scores corresponding to greater agitation. The primary endpoint of the study was the change from baseline in the CMAI total score at Week 5. P-values were calculated based on least square mean estimates.
Inclusion criteria included male or female […], diagnosis of probable Alzheimer's disease, according to the 2011 NIA-AA criteria, diagnosis of agitation, according to the IPA provisional definition of agitation, MMSE score between 10 and 24, an NPI-AA score ≥4, and community dwelling. Exclusion criterial included dementia of non-Alzheimer's type and current use of a selective serotonin reuptake inhibitor and/or a serotonin and norepinephrine inhibitor (SSRI/SNRI).

Row | SMILES | solubility in water [1] | mean reduction from baseline in CMAI total score ([2]; Week 5, primary endpoint, placebo 11.5, p=0.010) [points] | Diarrhea ([2]; both, human, in vivo, 5 weeks) | Discontinuation due to AEs ([2]; both, human, in vivo, 5 weeks) | Dizziness ([2]; both, human, in vivo, 5 weeks) | Falls ([2]; both, human, in vivo, 5 weeks) | Fatigue ([2]; both, human, in vivo, 5 weeks) | Headache ([2]; both, human, in vivo, 5 weeks) | Insomnia ([2]; both, human, in vivo, 5 weeks) | Serious AEs ([2]; both, human, in vivo, 5 weeks) | Somnolence ([2]; both, human, in vivo, 5 weeks) | Subjects with any TEAE ([2]; both, human, in vivo, 5 weeks) | diarrhea, adverse event rate ([2]; both, human, in vivo, 5 weeks) [%] | dizziness, adverse event rate ([2]; both, human, in vivo, 5 weeks) [%] | rate of discontinuation due to adverse events ([2]; both, human, in vivo, 5 weeks) [%] | serious adverse events, patients ([2]; both, human, in vivo, 5 weeks) [%] | somnolence, adverse event rate ([2]; both, human, in vivo, 5 weeks) [%] | deaths ([2]; one in the placebo arm)
1 | COc1ccc2c(c1)[C@]13CCCC[C@@H]1[C@H](C2)N(C)CC3 [Dextromethorphan hydrobromide, morphinan, 3-methoxy-17-methyl-, (9α, 13α, 14α), hydrobromide monohydrate] | sparingly soluble in water | – | – | – | – | – | – | – | – | – | – | – | – | – | – | – | – | –
2 | CC(NC(C)(C)C)C(=O)c1cccc(Cl)c1.Cl (racemic) [Bupropion hydrochloride, (±)-1-(3-chlorophenyl)-2-[(1,1-dimethylethyl)amino]-1-propanone hydrochloride] | highly soluble in water | – | – | – | – | – | – | – | – | – | – | – | – | – | – | – | – | –
3 | CC(NC(C)(C)C)C(=O)c1cccc(Cl)c1 (stereo not shown) [Bupropion, bupropion] | – | 10.0 | 3 (6.1%) number of subjects (% of subjects) | 1 (2.0%) number of subjects (% of subjects) | 5 (10.2%) number of subjects (% of subjects) | 7 (14.3%) number of subjects (% of subjects) | 5 (10.2%) number of subjects (% of subjects) | 3 (6.1%) number of subjects (% of subjects) | 3 (6.1%) number of subjects (% of subjects) | 4 (8.2%) number of subjects (% of subjects) | 2 (4.1%) number of subjects (% of subjects) | 30 (61.2%) number of subjects (% of subjects) | 6.1 | 10.2 | 2.0 | 8.2 | 4.1 | one

— patent US12472174B2, “Bupropion dosage forms with reduced food and alcohol dosing effects” (ANTECIP BIOVENTURES II LLC, priority 2022, dated 2025)
